# Test results published in the supplement of paper PMC10307832.
# Columns and labels:
# Assay in all cases: relative viability (nuclei count vs DMSO), 5 days (fraction); higher = more cells survive
# RO-3306 + Foretinib = compound: C1=CC2=C(C=CC(=C2)C=C3C(=O)NC(=NCC4=CC=CS4)S3)N=C1 [RO-3306] + COc1cc2c(Oc3ccc(NC(=O)C4(C(=O)Nc5ccc(F)cc5)CC4)cc3F)ccnc2cc1OCCCN1CCOCC1 [Foretinib] (partner 0.25 µM)
# Procedure, shortened: (§1)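 Lung cancer cell lines, seeded in 1536-well plates, were treated the following day by pin tool with a single drug or with five library-drug doses (not always all listed) in √10 steps on top of a fixed anchor-drug dose. Cells were fixed and nuclei stained in one step after 5 days, and nuclei were counted. Relative viability is the nuclei count for treated wells divided by that for vehicle wells, reported as medians of duplicate plates.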
# RO-3306 + Olaparib = compound: C1=CC2=C(C=CC(=C2)C=C3C(=O)NC(=NCC4=CC=CS4)S3)N=C1 [RO-3306] + O=C(c1cc(Cc2n[nH]c(=O)c3ccccc23)ccc1F)N1CCN(C(=O)C2CC2)CC1 [Olaparib] (partner 8 µM)
# Procedure, shortened: as §1
# [1] = compound: O=S(=O)(c1ccccc1)N(CC(F)(F)F)c1ccc(C(O)(C(F)(F)F)C(F)(F)F)cc1 + Cc1cc(Nc2cc(N3CCN(C)CC3)nc(Sc3ccc(NC(=O)C4CC4)cc3)n2)n[nH]1 [Tozasertib] (partner 0.1 µM)
# Procedure, shortened: as §1
# [2] = compound: O=S(=O)(c1ccccc1)N(CC(F)(F)F)c1ccc(C(O)(C(F)(F)F)C(F)(F)F)cc1 + Cc1nc(NC(=O)N2CCC[C@H]2C(N)=O)sc1-c1ccnc(C(C)(C)C(F)(F)F)c1 [Alpelisib] (partner 2 µM)
# Procedure, shortened: as §1
# [3] = compound: O=S(=O)(c1ccccc1)N(CC(F)(F)F)c1ccc(C(O)(C(F)(F)F)C(F)(F)F)cc1 + O=C(c1cc(Cc2n[nH]c(=O)c3ccccc23)ccc1F)N1CCN(C(=O)C2CC2)CC1 [Olaparib] (partner 8 µM)
# Procedure, shortened: as §1
Cell Line,relative viability (RO-3306 + Foretinib; first compound 0.01 µM),relative viability (RO-3306 + Foretinib; first compound 0.03162 µM),relative viability (RO-3306 + Foretinib; first compound 0.1 µM),relative viability (RO-3306 + Foretinib; first compound 0.3162 µM),relative viability (RO-3306 + Foretinib; first compound 1 µM),relative viability (RO-3306 + Olaparib; first compound 0.01 µM),relative viability (RO-3306 + Olaparib; first compound 0.03162 µM),relative viability (RO-3306 + Olaparib; first compound 0.1 µM),relative viability (RO-3306 + Olaparib; first compound 0.3162 µM),relative viability (RO-3306 + Olaparib; first compound 1 µM),relative viability ([1]; first compound 0.8 µM),relative viability ([1]; first compound 2.53 µM),relative viability ([1]; first compound 8 µM),relative viability ([2]; first compound 0.8 µM),relative viability ([2]; first compound 2.53 µM),relative viability ([2]; first compound 8 µM),relative viability ([3]; first compound 0.8 µM),relative viability ([3]; first compound 2.53 µM),relative viability ([3]; first compound 8 µM)
H3255,0.798,0.711,0.758,0.848,0.898,0.608,0.513,0.595,0.558,0.505,0.629,0.663,0.66,0.783,0.632,0.569,0.533,0.488,0.439
ABC-1,1.06,0.975,0.999,1.1,1.06,0.785,1.17,0.833,0.61,0.771,0.172,0.19,0.202,0.936,0.916,1.1,,0.763,0.638
LXF-289,0.985,0.956,0.945,0.996,0.958,1.06,0.897,1.06,1.08,0.692,0.213,0.203,0.153,1.03,0.912,0.789,1.03,0.91,1.04
NCI-H1975,0.975,1,1.02,0.985,0.793,1.07,0.711,0.835,0.918,0.953,0.781,0.622,0.659,0.616,0.581,0.594,1.02,0.762,0.875
LCLC-97TM1,0.928,0.866,0.927,0.9,1.01,0.406,0.479,0.315,0.367,0.278,0.218,0.21,0.156,0.241,0.252,0.263,,0.355,0.257
IA-LM,1.48,,0.956,1.12,1.3,0.975,,0.785,0.846,0.865,,,,0.715,0.5,0.655,0.94,0.651,0.681
HCC-15,1.19,0.954,0.963,1.01,0.93,0.666,0.628,0.756,0.701,0.693,0.498,0.341,0.322,0.908,0.809,0.823,0.737,0.581,0.644
NCI-H647,1.29,1.12,1.12,1.27,1.24,0.86,0.212,0.487,0.686,0.623,0.425,0.325,0.167,1.25,1.01,1.35,0.667,0.418,0.6
NCI-H1993,0.924,0.794,0.789,0.727,0.809,0.993,0.878,1.02,0.995,0.415,0.596,0.535,0.528,0.707,0.674,0.77,1.1,0.843,0.954
COR-L23,0.958,0.941,0.966,1.13,1.08,0.414,0.364,0.456,0.34,0.322,0.159,0.152,0.164,0.846,0.8,0.867,0.357,0.35,0.34
NCI-H1915,1.14,0.891,1.15,1.11,1.23,0.276,0.235,0.263,0.246,0.255,0.458,0.454,0.468,1.09,1.03,1.02,0.266,0.263,0.269
NCI-H1703,0.392,,0.325,0.389,0.345,0.387,0.38,0.387,0.389,0.429,,,,0.343,0.316,0.382,0.53,0.387,0.446
NCI-H727,1.03,0.94,0.74,1.21,1.01,0.666,0.722,0.844,0.724,0.621,0.605,0.572,0.674,0.549,0.465,0.489,0.657,0.706,0.704
LC-2-ad,0.877,0.804,0.941,0.967,0.942,0.703,0.663,0.719,0.693,0.712,0.496,0.492,0.474,0.576,0.843,0.841,0.689,0.675,0.674
NCI-H2009,1.32,1.24,1.2,1.19,1.2,0.789,0.684,0.694,0.796,0.727,0.749,0.57,0.679,1.09,1.02,0.964,0.663,0.685,0.648
A-427,0.923,0.937,1.07,1.06,1.13,0.81,0.813,0.705,0.778,0.652,0.186,0.216,0.298,1.11,1.02,1.02,0.807,0.673,0.778
SK-MES-1,1.06,0.425,0.996,0.782,0.976,0.805,0.671,0.601,0.677,0.665,1.11,1.05,0.962,0.827,0.789,0.848,0.743,0.728,0.579
NCI-H1734,0.759,0.746,0.893,0.924,0.804,0.703,0.515,0.632,0.622,0.551,0.294,0.29,0.244,0.845,0.626,0.708,0.703,0.559,0.469

Cell Line,relative viability (RO-3306 + Foretinib; first compound 0.01 µM),relative viability (RO-3306 + Foretinib; first compound 0.03162 µM),relative viability (RO-3306 + Foretinib; first compound 0.1 µM),relative viability (RO-3306 + Foretinib; first compound 0.3162 µM),relative viability (RO-3306 + Foretinib; first compound 1 µM),relative viability (RO-3306 + Olaparib; first compound 0.01 µM),relative viability (RO-3306 + Olaparib; first compound 0.03162 µM),relative viability (RO-3306 + Olaparib; first compound 0.1 µM),relative viability (RO-3306 + Olaparib; first compound 0.3162 µM),relative viability (RO-3306 + Olaparib; first compound 1 µM),relative viability ([1]; first compound 0.8 µM),relative viability ([1]; first compound 2.53 µM),relative viability ([1]; first compound 8 µM),relative viability ([2]; first compound 0.8 µM),relative viability ([2]; first compound 2.53 µM),relative viability ([2]; first compound 8 µM),relative viability ([3]; first compound 0.8 µM),relative viability ([3]; first compound 2.53 µM),relative viability ([3]; first compound 8 µM)
LOU-NH91,0.879,0.94,0.951,0.87,0.976,0.953,0.834,0.916,0.913,0.813,0.735,0.701,0.678,0.654,0.721,0.74,0.966,0.935,0.913
LCLC-103H,0.695,0.647,0.779,0.719,0.835,0.836,0.776,0.772,0.733,0.784,0.541,0.447,0.349,1.11,0.999,1.03,0.813,0.737,0.772
NCI-H522,,,,,,0.619,0.561,0.634,0.546,0.608,0.567,0.488,0.615,,,,0.597,0.614,0.714
NCI-H1651,0.986,0.723,0.879,0.8,0.823,0.177,0.168,0.181,0.174,0.177,0.734,0.687,0.564,0.94,0.972,0.89,0.178,0.206,0.176
NCI-H23,0.972,0.728,0.833,1.08,0.978,0.333,,0.25,0.307,0.268,0.315,0.307,0.331,0.905,0.818,0.618,0.31,0.23,0.302
NCI-H322M,1.05,0.815,0.896,0.962,1.02,0.817,0.743,0.773,0.785,0.696,0.562,0.575,0.467,0.794,0.792,0.73,0.81,0.734,0.857
HCC-44,,,,,,1.01,0.958,1,1.01,1.02,,0.862,0.894,0.913,0.946,0.927,0.932,0.969,0.999
NCI-H1648,,,,,,0.679,,0.927,0.767,0.885,0.408,0.293,0.339,,,,0.835,0.542,0.602
A549,1.1,0.891,1,0.883,0.818,0.308,0.295,0.297,0.367,0.303,,,,0.643,0.779,0.677,0.299,0.278,0.204
NCI-H1792,,,,,,0.544,,0.484,0.51,0.436,,,,0.629,0.445,0.34,0.402,0.274,0.189
NCI-H1299,1.17,1.1,1.15,1.14,1.17,0.993,0.99,0.988,0.997,0.97,,,,1.09,1.08,1.03,0.961,0.949,0.96
Calu-6,0.948,0.957,0.973,0.942,0.82,0.568,0.576,0.599,0.611,0.604,,,,0.82,0.77,0.885,0.562,0.58,0.571
NCI-H1563,0.847,1.03,0.881,0.956,0.939,,,,,,,,,0.923,0.833,0.788,,,
NCI-H2342,1.13,0.889,1.08,1.05,0.885,0.574,0.499,0.428,0.437,0.379,0.483,0.609,0.493,,,,0.475,0.504,0.429
NCI-H1650,1.73,0.858,0.917,1.11,0.723,0.933,0.718,0.809,0.784,0.656,0.348,0.404,0.346,,,,0.792,0.678,0.743
SW 900,0.965,1.12,0.68,0.806,0.644,0.96,0.809,0.72,0.789,0.807,0.528,0.426,0.404,,,,0.838,0.901,0.706
EBC-1,0.0936,0.118,0.101,0.121,0.0921,0.838,0.559,0.632,0.839,0.751,,,,0.572,0.474,0.547,0.692,0.584,0.597
ChaGo-K-1,0.849,0.783,0.868,0.816,0.702,0.443,0.402,0.41,0.362,0.223,0.225,0.209,0.235,,,,0.466,0.427,0.388
